Results on 33 molecules are retold here after the METLIN SMRT retention time set (Domingo-Almenara et al. 2019).

SMILES strings stand for the structures.

The nature of the data set: gradient 5% acetonitrile 3 min, to 50% in 2 min, to 85% in 15 min, held 3 min, 100 µL/min. To be noted: column: Zorbax Extend-C18 2.1 x 50 mm; eluents: water / acetonitrile, 0.1% formic acid. A digest of the protocol: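 Standards, all pure, were combined into mixtures of ~100 molecules and run at 100 μL/min on a Zorbax Extend-C18 column (2.1 × 50 mm, 1.8 μm) with water and acetonitrile, each containing 0.1% formic acid. A coupled quadrupole time-of-flight mass spectrometer operated in positive and negative ionization mode. Retention time values come from computationally picked adduct peaks, each inspected manually.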
The molecule `O=C(NCc1ccccc1)N1CCCC(Cn2cnc3cccnc32)C1` (stereo not drawn) gave an RP-LC retention time of 618 s.

The molecule `O=C(NCCCN1CCCC1=O)c1cccc2c1CCN2C(=O)Nc1ccc(F)cc1` showed an RP-LC retention time of 680 s.

`Cc1nnc2c(=O)n(CC(=O)NC(C)c3ccccc3)c3cccnc3n12` (stereo not drawn) displayed an RP-LC retention time of 988 s.

Molecule `CCc1ccc(CNC(=O)C2CCCN(c3nccnc3Sc3ccccc3)C2)cc1` (stereo not drawn) had an RP-LC retention time of 1140 s.

The molecule `COCCNC(=O)c1nc(-c2ccnc(N3CCCCC3)c2)no1` displayed an RP-LC retention time of 612 s.

As for `O=S(=O)(c1ccc(F)c(Cl)c1)N1CC(F)(F)C[C@H]1CN1CCc2ccccc2C1`, the RP-LC retention time was 791 s.

`Cn1c(N2CCCCS2(=O)=O)nc(C(=O)NCc2ccc(F)cc2)c(O)c1=O` registered an RP-LC retention time of 864 s.

Turning to `CCc1ccc(N2CC(c3noc(-c4ccc(Cl)cc4)n3)CC2=O)cc1` (stereo not drawn), the RP-LC retention time turned out to be 1200 s.

Consider `CCc1cc(C(=O)Nc2cccc(C)c2C)nc2ccnn12`, for which the RP-LC retention time was determined as 1150 s.

With `COCC1CN(Cc2cn[nH]c2-c2ccc(F)cc2)CCC1(F)F` (stereo not drawn), the RP-LC retention time worked out at 619 s.

In turn, `COc1ccc(OC)c(S(=O)(=O)N2CCCC(C(=O)NCCO)C2)c1` (stereo not drawn) displayed an RP-LC retention time of 636 s.

Consider `Cc1cc(C)cc(C(=O)N2CCN(c3nc(CN4CCOCC4)cs3)CC2)c1`, for which the RP-LC retention time worked out at 647 s.

`COc1ccccc1-c1noc(C2CCCN2C(=O)c2ccc3c(c2)OCO3)n1` (stereo not drawn) came in with an RP-LC retention time of 845 s.

`O=C(NCc1ccco1)c1ccc(-n2nnc3cccnc32)cc1Cl` registered an RP-LC retention time of 793 s.

In turn, `COCC(=O)NC1CCC12CCN(C(=O)C1CCC1)CC2` (stereo not drawn) returned an RP-LC retention time of 661 s.

For `O=C(CCn1ccc2cc(S(=O)(=O)N3CCCCCC3)ccc21)N1CCN(c2ccccn2)CC1`, the RP-LC retention time amounted to 710 s.

For `CCCNC(=O)c1c(O)c2cccnc2n(-c2ccc(OC)cc2)c1=O`, the RP-LC retention time worked out at 1080 s.

The molecule `O=S(=O)(NCCC1=CCCCC1)c1cccc(-c2nc(-c3ccccc3)no2)c1` returned an RP-LC retention time of 1360 s.

With `CC(=O)NCCc1csc(C2CCN(C(=O)C3CCC3)CC2)n1`, the RP-LC retention time amounted to 625 s.

`COc1ccc(NC(=O)N2CCC3(C2)C(=O)Nc2ccccc23)cc1` (stereo not drawn): the RP-LC retention time was 702 s.

Turning to `O=C(NCCCO)C1CCCN(c2ccc(Sc3ccc(Br)cc3)nn2)C1` (stereo not drawn), the RP-LC retention time is 704 s.

`CCOc1ccccc1N1CCN(C(=O)C2CCN(c3nccc4c(C)nn(CC)c34)CC2)CC1` returned an RP-LC retention time of 719 s.

In turn, `Cc1ccccc1-c1noc(-c2nc(-c3ccncc3)no2)n1` yielded an RP-LC retention time of 1090 s.

`Cc1cccc(NC(=O)N2CCC(c3nc(C(=O)N(C)C)c(C)o3)CC2)c1C`: the RP-LC retention time turned out to be 697 s.

For `O=C(OCc1ccc([N+](=O)[O-])cc1)c1ccc(S(=O)(=O)NCC2CCCO2)cc1` (stereo not drawn), the RP-LC retention time amounted to 870 s.

`O=C(Nc1cccc(Cl)c1)C1CCN(S(=O)(=O)c2cc(-c3noc(C4CC4)n3)cs2)CC1`: the RP-LC retention time worked out at 1100 s.

As to `O=C(NC1CC(=O)N(C2CC2)C1)c1cc2ccccc2[nH]1` (stereo not drawn), the RP-LC retention time worked out at 638 s.

For `O=C(N1c2ccccc2CC1c1nnc(C2CCOCC2)o1)C1(c2ccccc2)CC1` (stereo not drawn), the RP-LC retention time worked out at 841 s.

With `O=C(Nc1cnn(-c2ncncc2N2CCSCC2)c1)C1CCCCC1`, the RP-LC retention time worked out at 778 s.

With `CCN1c2ccc(C)cc2C(=O)NC12CCN(C(=O)c1ccccc1F)CC2`, the RP-LC retention time is 806 s.

As for `O=C(c1cnn2c(C(F)(F)F)cc(-c3ccccc3)nc12)N1CCN(c2ccccn2)CC1`, the RP-LC retention time amounted to 687 s.

Molecule `O=C(NCC(O)C1CCCCC1)c1cccc(C(F)(F)F)c1` (stereo not drawn) gave an RP-LC retention time of 840 s.

Consider `O=C(Cc1cccc(F)c1)Nc1nnc(C2CC(=O)N(c3ccc(F)cc3)C2)o1` (stereo not drawn), for which the RP-LC retention time was determined as 726 s.
